The values that follow come from patent US20170119806A1, “[…] LACTONE DERIVATIVES AND METHODS OF MAKING AND USING THEREOF” (OHIO STATE INNOVATION FOUNDATION, priority 2014, published 2017).

Each structure is given as a SMILES string. “Also recorded” adds a separate entry of the source.

The subject of one series is CD4+ or CD8+ T cells. In words: T cell IFN-γ production (intracellular flow cytometry in PBMCs). Format: cell-based, human. As to conditions: 10 μM PL-C, 18 h, with IL-12 or IL-15; listed as PL-C. On the procedure:
(A) Human […] were treated with DMSO vehicle control or 10 μM PL-C for 18 hours in the presence of IL-12 (10 ng/mL) or IL-15 (100 ng/mL), as described in FIG. 37C. The cells were harvested for intracellular flow cytometry to determine the frequency of IFN-γ^+ cells in CD56^−CD3^+[…] or CD56^−CD3^+CD8^+T. Representative data from 1 out of 5 donors are shown. (B) Purified primary NK cells were treated with IL-12 (10 ng/mL) or IL-15 (100 ng/mL) with or without 10 μM PL-C for 8 hours and were sequentially co-cultured with […] labeled ARH-77 cells at various effector/target cell ratios for additional 4 hours. ^51Cr release was measured by a TopCount counter. Data shown are the means of 3 donors. […] Error bars represent S.D. (C) Purified primary NK cells were treated with 10 μM PL-C in the presence of IL-12 (10 ng/mL) (top) or IL-15 (100 ng/mL) (bottom) for 12 hours, and cell pellets were harvested for detecting granzyme A (GZMA), granzyme B (GZMB), perforin (PRF1) and Fas (Fasl) mRNA expression level by real-time RT-PCR. Data shown are the means of 6 donors. p>0.05, vehicle control versus PL-C in all panels. Error bars represent S.D.
Intracellular flow cytometry. […] Data were acquired using an LSRII (BD Biosciences) flow cytometer and analyzed using FlowJo software (Tree Star, Ashland, Oreg.).

The test system of series [1] is C3-3P NF-κB p65 binding site of the IFNG promoter. Briefly: EMSA and ChIP of p65 binding to the IFNG promoter. In kind it is cell-based, human. Conditions: 10 μM PL-C with IL-12 (10 ng/mL), 12 h, ChIP. On the procedure:
(A) Schematic of IFNG promoter potential binding sites for p65 (45). (B) NK cells purified from healthy donors were treated with 10 μM PL-C or DMSO vehicle control in the presence of IL-12 (10 ng/mL) for 12 h. Cell pellets were harvested for nuclear extraction, followed by EMSA with a ^32P-labeled oligonucleotide containing the C3-3P NF-κB p65 binding site of the IFNG promoter. Data shown represent one of three donors with similar results. (C) Cells were treated as described in (B), and the cell pellets were harvested to extract protein for ChIP assay of p65 binding to the IFNG promoter locus C3-3P. Mean of relative association of p65 at the IFNG promoter locus C3-3P from three independent experiments is shown. *p<0.05, compared with cells treated with IL-12 alone. Error bars represent S.D.
EMSA. Nuclear extracts were isolated using a nuclear extract kit, according to the manufacturer's instruction (Active Motif, Carlsbad, Calif.). EMSA was performed as described previously (Bachmeyer C et al. Nucleic Acids Res, 1999, 27, 643-648). […]
Chromatin immunoprecipitation. […] DNA precipitated by the anti-p65 or the normal IgG Abs was quantified by real-time PCR, and values were normalized to input DNA.

The next series can be described thus: Toxicity of PL-C in mice. Format: in vivo. As to conditions: up to 500 mg PL-C/kg body weight. An excerpt: The findings discussed herein provide an avenue to prevent or treat cancer using natural products and their derivatives through enhancing NK cell immuno-surveillance. […] Developing less toxic drugs is important for preventing or treating some cancers, especially thr those which are dominant in children or in elderly populations, such as AML AML primarily affects older adults: the median age at diagnosis is >65 years (Estey E and Milner H. Lancet 2006, 368, 18941907; Yanada M and Naoe T. Int. J. Hematol. 2012, 96, 186-193). The 5 year survival rate of AML in older adults remains under 10% (Stein E M and Tallman M S. Int J. Hematol 2012, 96, 164-170). Elderly AML patients are less able than younger patients to tolerate effective therapies such as intensive chemotherapy and allogeneic stem cell transplantation.

The test system of series [2] is HT-29 human colon cancer cells. In words: Cytotoxicity against HT-29 cells. Conditions: read-out: IC50 values toward the HT-29 cells; Table 6; triplicate, two independent experiments.
Procedure: The cytotoxicity of the test compounds was screened against HT-29 cells by a previously reported procedure (Ren Y et al. J. Nat. Prod 2011, 74, 1117-1125). Paclitaxel and etoposide were used as positive controls.
All arylnaphthalene lignans isolated from P. poilanet in the present study and their semi-synthetic analogues were evaluated for their cytotoxicity against HT-29 human colon cancer cells, using paclitaxel as the positive control (Table 6) (Ren Y et al. J. Nat. Prod 2011, 74, 1117-1125).

Take `COc1cc2c(OC3OCC(O)C(O)C3O)c3c(c(-c4ccc5c(c4)OCO5)c2cc1OC)C(=O)OC3` (stereo not shown) [Compound 4, Phyllanthusmin C]: the “T cell IFN-γ production” value in the series with CD4+ or CD8+ T cells was “little or no; also recorded: negligibly activated T cell IFN-γ production; also recorded: few, if any”. In addition, in series [1], the “p65 binding to the C3-3P site of the IFNG promoter” value was “enhanced p65 binding to the C3-3P binding site”. Besides, the toxicity in mice entry in “Toxicity of PL-C in mice” is reported as “lack of substantial toxicities”. Besides, the IC50 in series [2] stood at 3.2 µM.
